Experimental data reported in US11540515B2, “Use of dialkoxybenzenes for control of honey bee mite varroa destructor” (Simon Fraser University, priority 2018, dated 2023).
“Also recorded” adds a separate entry of the source.

Columns and labels:
[1] = test system: Varroa mites; assay: Evaluation of acaricidal effect: emerging bees loaded with Varroa mites in glass petri dish, compound on Parafilm; assay type: in vivo, Varroa destructor
Method: The effect of the compounds was checked in free moving-mites freshly collected from the bottom board using fine paint brush. All collected Varroa were kept on emerging bees at room temperature until the experiment.
Compounds (code-labeled, Table 1) were prepared in hexane:ethyl acetate (1:1) in 10 mM concentration according to instructions. Dilutions only of compound “A” was prepared. […] This setup enabled the testing of all the compounds and to save the mites.
The assay was conducted in glass petri dish (90 mm diameter and 17 mm deep glass) containing moistened filter paper. Five emerging bees loaded with two Varroa mites were put into each plate. The bees were provided with candy (60% of pollen and 40% sugar). 10 μl or 30 μl volume of each compound or control mix was placed on Parafilm paper (5×5 cm) on the plates cover.

[2] = test system: Varroa mites phoretic on young bees; assay: Example 2 assay on mites phoretic on young bees (mite fall); assay type: in vivo, Varroa destructor; settings: 100 microgram/μl solution and dilutions; end of experiment
Method: (§1) The experiments were conducted in glass petri dish under control environment as described above in Example 1. Two sets of experiments were conducted compound 3c{3,6}:
(§2) 2. Assay on mites phoretic on young bees. In this experiment 100 microgram/μ1 solution and its dilutions were used. Two mites were placed on each living young bee.
(§3) In the second assay the percentage of mites dropping from bees as function of time was measured (FIG. 2).

[3] = test system: young bees; assay: Example 2 assay on mites phoretic on young bees: condition of the bees; assay type: in vivo, Apis mellifera; settings: end of experiment
Method: as §1, §2, §3

[4] = test system: honey bees; assay: Bee mortality in hoarding cages, 3c{3,6} provided in sugar solution; assay type: in vivo, Apis mellifera
Method: 3c{3,6} provided in sugar solution: The test was conducted on twenty freshly collected bees in hoarding cages as described above. […] In addition, no differences were apparent in the general behavior of the honeybees. Furthermore, honey bees can ingest compound 3c{3,6} without harm and without increase in mortality.

[5] = test system: Varroa destructor mites; assay: Example 3 paralysis assays in petri dishes (dose response, screen, blends); assay type: in vivo
Method: Paralysis assays. These assays were done in 10 cm glass Petri dishes. A 3×3 cm piece of Parafilm was stuck to the lid of the dish, in the middle. The Parafilm received […], either pure (controls) or with the compound (treatments). The bottom of the dish received one freshly thawed nurse and one freshly thawed forager, placed ˜3 cm from the center of the dish. One mite was placed between the nurse and the forager, the lid was closed and groups of dishes were placed in an incubator at 30° C. Humidity levels were kept at around 35-40%.
Observation times were 3 h and 5 h. Mites were scored for whether the mite could move normally, was paralyzed (had difficulty moving) or dead (not moving).
Each assay was done in 5 technical replicates, in two biological replicates. Thus, each biological replicate was scored out of 5.
Experiments were performed in the dishes: i) dose response assays with a single compound at different doses of compound on the Parafilm (1 ng, 10 ng, 100 ng, 1 μg, 10 μg, 100 μg, 1 mg and 10 mg), ii) a screen with six compounds, all at a 1 mg dose, iii) an assay with blends of compounds 3c{3,6} and 3c{6,6}, and iv) one assay without bees (only to check for mite paralysis and death), with compounds 3c{3,6} and 3c{6,6}(pure or 1:1 blend), at 0.5 and 1 mg doses.

[6] = test system: Varroa; assay: Example 5 Varroa death and paralysis assay, single compounds and blend; design: species or system Varroa destructor; settings: in vivo
Method: Assays were done in 9 cm glass Petri dishes. A 2.5×2.5 cm piece of Parafilm was stuck to the lid of the dish, in the middle. 120 μL water were put on filter paper in the middle of the plate. The Parafilm received 10 μL of hexane, either pure (controls) or with the compound (treatments). The bottom of the dish received one freshly thawed nurse and one freshly thawed forager, placed at opposite sides. One mite was placed between the nurse and the forager, the lid was closed and groups of dishes were placed in an incubator at 30° C. Observation times were at 3 h, 5 h and 20 h. Mites were scored for whether the mite could move normally, was paralyzed (had difficulty moving) or dead (not moving). Four types of experiment were performed in the dishes: i) dose response assays with a single compound at different doses of compound on the Parafilm (1 ng, 10 ng, 100 ng, 1 μg, 10 μg, 100 μg, 1 mg) an assay with blends of compounds 3c{3,6} and 3c{6,6} (pure or 1:1 blend) at 0.5 mg and […].

[7] = test system: Varroa mites; assay: Example 6 behavioral dose response bio-assays of Varroa mites; assay type: in vivo
Source text: Foragers were collected at the entrance of one or more honey bee hives by aspiration into a jar, when bees were flying back to the colony.
Initially, nurses were collected from an open brood frame of a honey bee hive. Bees apparently attending the brood were targeted for collection. As time passed and temperatures started to drop no open brood was observed, therefore subsequent collections targeted bees around sealed brood. At the end of the sampling period no sealed brood was present, so bees taken from the middle frame of a brood chamber were considered nurses.
Both foragers and nurses were immediately transferred to individual plastic cages (118×98×81 mm: H×W×D), fed with syrup (2:1) and kept overnight in an incubator at 30° C. and 70% RH. Next day, cages were inspected for any dead bees to be removed before freeze killing the bees on dry ice.
For Varroa mite collection, adult bees were taken from the brood chamber's central frames of a mite-infested hive using a glass jar. Bees were fed with syrup (2:1), and kept in an incubator at 30° C. and 70% RH until needed. First collections were made from frames with open and sealed brood, later only from sealed brood frames.
Mite-infested bees in the glass jar were dusted with icy sugar and shaken over a large plastic weighing boat. Dislodged Varroa were immediately transferred with a fine paint brush to a wet filter paper in a plastic petri dish to avoid desiccation. Individual mites were placed then onto the middle of a glass petri dish bottom (10 cm diameter) with a fresh freeze-killed forager or nurse bee on opposite sides of the plate. Synthesized compounds were applied onto a 1 cm^2 Parafilm square attached to the center of the petri dish cover's inner face, Hexane was used as control.
The bio-assays with a forager and a nurse bee, Varroa mite, and synthesized compounds were set in glass petri dishes placed into an incubator at 30° C. and 70% relative humidity. […] Mite paralysis and death were recorded after 3 h and 5 h.

C=CCOc1ccc(OCCC)cc1 [3c{3,6}, 1-allyloxy-4-propoxybenzene]
miticidal effect of dilutions ([1]; dilutions of 10 mM solution, any concentration): no miticidal effect
acaricidal effect ([1]; highest amount tested (30 μl), end of 24 h): clear acaricidal effect
mites dropping from bees as function of time (FIG. 2) [2]: dropped dead off the bees
condition of bees [3]: remained in perfect shape
effect on the honeybees [4]: did not have negative effect
bees died at the end of experiment ([4]; after 72 hours, treated group (control 21%)): 5%
paralysis and mite death in screen ([5]; 1 mg dose, 3 h): most reliable mite paralysis
net paralysis+death of mites, comparison of compounds ([5]; 0.5 and 1 mg/treatment): more active than 3c{6,6}
EC50 for paralysis and eventual death of mites ([5]; neat compound on the source, vapors only, 3 h): 41.5 µg
acaricidal activity alone [6]: acaricidal
mites dead ([7]; 100 μg): half of the mites dead
mite paralysis/mortality ([7]; 1 mg): 100%
mite paralysis/mortality (words) ([7]; 1 mg): total effectivity; also recorded: all mites
doses at which mites were paralyzed or killed ([7]; FIG. 9 / FIG. 10): ≥ 10 µg
